Experimental data as given in patent US12391679B2, “Benzamide-substituted bicyclic imidazo- and pyrazolo-fused -pyridine, -pyrimide, and -pyridazine compounds for treatment of inflammatory diseases” (ONCO3R Therapeutics BV, priority 2019, dated 2025).
pEC50, pIC50: −log10 of the molar value.

Columns and labels:
SIK1 [1] = target: T1, SIK1 (Homo sapiens, UniProt P57059); assay: 33P radioactive kinase assay, SIK1; type: biochemical
T1 construct: purchased Carna Biosciences 02-131
Procedure: (§1) The principle of the ^33P radioactive kinase assay consists in measuring the incorporated ^33P into the substrate AMARA peptide when phosphorylated by SIK1, SIK2 or SIK3 using [^33P]-g-ATP, which correlates with kinase activity.
(§2) The test compounds are prepared as a serial dilution of 10 point dose responses with 1/5 dilution steps in 100% DMSO starting from 2 mM highest concentration, diluted 1/20 in water and 5 μL is transferred to the assay plates (Greiner, Cat #651201).
(§3) 1% DMSO and 10 μM staurosporine final concentrations are used as negative and positive controls.
(§4) 11 μL of enzyme-substrate mixture is added on the assay plates. The reactions are started by adding 9 μL ATP mixture, consisting of non-labeled and ^33P-labeled ATP, on the assay plates.
(§5) The reactions are stopped by adding 25 μL phosphoric acid (150 mM) to the reactions.
(§6) The completely terminated kinase reactions are transferred using a harvester on pre-wetted UniFilter-96 plates (UniFilter-96 GF/B, PerkinElmer Inc., Cat #6005177).
(§7) After harvesting the kinase reactions, the filter plates are washed 6 times with phosphoric acid (75 mM). The back of the UniFilter-96 plates are sealed and 40 μL MicroScint-20 (PerkinElmer Inc., Cat #6013621) is added to each well. The top of the plates are sealed with TopSeal-A. Read-out is performed with a TopCount instrument (PerkinElmer Inc.).
(§8) Raw data are generated following the read-out performed on the TopCount, plotted to generate dose response curves to calculate percentage inhibition (PIN) and average IC50 for each SIK homologue which are reported in the table below.

[2] = tested on: LPS-induced TNFα in monocyte-derived macrophages; assay: MdM assay: LPS-triggered TNFα (ELISA); type: cell-based, human; details: Macrophage; human MdM; LPS 200 ng/mL; supernatant after 20 h; inhibition of TNFα; read-out: TNFα EC50
Procedure: This assay evaluates illustrative compounds of the invention for their inhibition of LPS-induced TNFα and LPS triggered IL-10 secretion in monocyte-derived macrophages. PBMCs are isolated from human blood samples (buffycoats). The buffy coat is aseptically transferred into a 50 mL Falcon tube, and diluted 1/2 in PBS. Falcon tubes are filled with 20 mL LymphoprepTM, on top of which 25 mL of the buffy coat is carefully added, tubes are centrifuged for 35 min at 400 g in temperature controlled centrifuge, without brake, at 25° C. PBMCs are aspirated from the white interface layer between sample and LymphoprepTM. PBMCs are washed five times in PBS. […] PBMCs are centrifuged at 300×g for 10 min and resuspended at a density of 1.0*10^7 cells/80 μL Miltenyi buffer (PBS, pH 7.4, 1% FBS, 2 mM EDTA). Starting from this point of the protocol all steps are performed on ice. 20 μL of CD14+ micro-beads are added per 1.0*10^7 cells, the tube is mixed and incubated for 15 min in the fridge at 4° C. Cell suspension volume is adjusted to total volume of 100 mL using Miltenyi buffer, mixed gently and subsequently centrifuged for 10 min at 300×g. Supernatant is discarded and cell pellet is resuspended in 12 mL of Miltenyi buffer. Four LS columns are placed in the MACS Separator (magnet) from Miltenyi Biotec, and are prewet by rinsing with 3 mL of MACS buffer per column. Three mL of cell suspension is added onto the column (max 1*10^8 of labelled cells/column), and columns are subsequently washed 3 times with 3 mL of Miltenyi buffer. The columns are removed from the magnets, and 5 mL of Miltenyi buffer are added to the column to flush out the CD14+ fraction by pushing the plunger into the column. The flushed fractions are collected in a fresh 50 mL Falcon and volume is adjusted to 30 mL using Miltenyi buffer, cells are centrifuged for 10 min at 300×g. The obtained cell pellet is resuspended in 10 mL RPMI w/o FBS, and cell density is determined using a hematologic analyser (Sysmex XS-500i). […] On day 10, MdMs are triggered and compound is added. A compound dilution plate is made in 100% DMSO by 3-fold dilution of 10 mM stock solution. An intermediate dilution plate (10× final concentration) is made by diluting the compound dilution plate […] in RPMI medium. Medium is carefully removed from cell plates using multichannel pipette, and replaced by 80 μL fresh medium. 10 μL of the 10× final concentration compound is added to the cells and incubated for 1 hour at 37° C. before addition of trigger. No trigger conditions/trigger conditions are spiked with equal final DMSO concentrations of 0.2% DMSO. 10 μL of 10×LPS (final conc. 200 ng/mL) solution are added to all wells except for the 'no trigger wells' where 10 μL medium is added. Supernatant is collected after 2 h (IL-10 determination) and after 20 h (TNFα determination) of LPS triggering. […] The plate is then washed once with PBST (PBS+0.05% Tween20) and once with PBS followed by the addition of 100 μL of blocking buffer (1% Bovine Serum Albumin (BSA) -5% Sucrose) and plates are sealed and incubated for at least 4 h at RT. After washing the plate once with PBST and once with PBS, 40 μL of standard or sample are added (TNFα standard curve is prepared using a 1/2 serial dilution starting from 16000 pg/mL; dilutions are made in dilution buffer (PBS+1% BSA)). Plates are washed twice with PBST, and once with PBS, after which 35 μL of the detection antibody is added (final concentration 0.25 μg/mL diluted in dilution buffer) and plates are incubated for at least 2 h at RT. Plates are washed twice with PBST, and once with PBS, where after 35 μL of Strep-HRP conjugate (0.5 μg/mL final concentration diluted in dilution buffer) is added. […] Plates are washed twice with PBST, and once with PBS. Thereafter, 50 μL of luminol substrate is added to each well (prepared according to manufacturer's instructions), and incubated for 5 min at RT protected from light.

SIK2 [3] = target: T2, SIK2 (Homo sapiens, UniProt Q9H0K1); assay: 33P radioactive kinase assay, SIK2; type: biochemical; also: AMARA 5 µM, 10 µM ATP
T2 construct: purchased ThermoFisher Scientific PV4792
T2 sequence (Q9H0K1 whole entry): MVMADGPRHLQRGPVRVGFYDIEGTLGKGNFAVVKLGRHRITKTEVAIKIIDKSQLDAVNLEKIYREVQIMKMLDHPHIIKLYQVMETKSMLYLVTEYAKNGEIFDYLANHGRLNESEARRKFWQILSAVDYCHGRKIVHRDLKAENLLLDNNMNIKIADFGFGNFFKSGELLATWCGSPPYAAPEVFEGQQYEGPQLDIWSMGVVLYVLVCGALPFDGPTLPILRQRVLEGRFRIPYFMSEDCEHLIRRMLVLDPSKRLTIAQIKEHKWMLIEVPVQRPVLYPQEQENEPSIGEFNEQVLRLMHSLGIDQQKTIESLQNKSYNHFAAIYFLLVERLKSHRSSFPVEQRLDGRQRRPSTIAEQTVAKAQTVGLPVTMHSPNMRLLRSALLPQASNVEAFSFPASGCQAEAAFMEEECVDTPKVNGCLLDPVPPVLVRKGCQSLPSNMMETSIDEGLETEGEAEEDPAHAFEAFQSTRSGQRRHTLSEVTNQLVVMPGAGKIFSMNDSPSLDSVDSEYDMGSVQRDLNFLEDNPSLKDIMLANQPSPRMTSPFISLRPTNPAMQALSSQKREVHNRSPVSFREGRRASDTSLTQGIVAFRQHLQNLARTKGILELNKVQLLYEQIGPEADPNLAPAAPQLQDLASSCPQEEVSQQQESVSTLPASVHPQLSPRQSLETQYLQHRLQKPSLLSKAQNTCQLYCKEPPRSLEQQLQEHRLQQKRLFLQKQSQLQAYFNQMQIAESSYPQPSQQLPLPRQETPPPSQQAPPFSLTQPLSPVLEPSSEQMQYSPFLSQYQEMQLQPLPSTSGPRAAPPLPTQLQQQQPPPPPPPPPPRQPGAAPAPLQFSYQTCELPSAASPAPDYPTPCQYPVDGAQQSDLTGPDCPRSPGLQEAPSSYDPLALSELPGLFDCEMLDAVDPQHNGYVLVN
Procedure: as §1, §2, §3, §4, §5, §6, §7, §8

SIK3 [4] = target: T3, SIK3 (Homo sapiens, UniProt Q9Y2K2); assay: 33P radioactive kinase assay, SIK3; type: biochemical; details: 33P radioactive assay; AMARA 7 μM; 15 μM ATP; 80 min; average IC50
T3 construct: purchased SignalChem S12-11G-100
T3 sequence (Q9Y2K2 59-365 limits assumed): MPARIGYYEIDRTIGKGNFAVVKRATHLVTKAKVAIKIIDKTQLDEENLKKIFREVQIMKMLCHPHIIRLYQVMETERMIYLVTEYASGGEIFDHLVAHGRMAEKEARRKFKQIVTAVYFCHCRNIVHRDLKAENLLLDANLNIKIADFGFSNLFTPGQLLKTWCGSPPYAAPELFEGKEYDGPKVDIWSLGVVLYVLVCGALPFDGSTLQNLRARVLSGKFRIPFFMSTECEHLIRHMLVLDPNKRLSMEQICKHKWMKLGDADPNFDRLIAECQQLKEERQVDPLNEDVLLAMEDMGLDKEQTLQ
Procedure: as §1, §2, §3, §4, §5, §6, §7, §8

SIK3 [5] = target: T3, SIK3; assay: ADP-Glo kinase assay, SIK3; type: biochemical
Summary of the method: (§9)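 ADP-Glo format, luminescent. Room-temperature kinase reaction lasting 120 min, followed by ATP removal (40 min) and ADP detection (30 min); 10 μM staurosporine serves as full-inhibition control, 1% DMSO as uninhibited control.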

SIK2 [6] = target: T2, SIK2; assay: ADP-Glo kinase assay, SIK2; type: biochemical
Summary of the method: as §9

SIK1 [7] = target: T1, SIK1; assay: ADP-Glo kinase assay, SIK1; type: biochemical
Summary of the method: as §9

T1 sequence (P57059 whole entry): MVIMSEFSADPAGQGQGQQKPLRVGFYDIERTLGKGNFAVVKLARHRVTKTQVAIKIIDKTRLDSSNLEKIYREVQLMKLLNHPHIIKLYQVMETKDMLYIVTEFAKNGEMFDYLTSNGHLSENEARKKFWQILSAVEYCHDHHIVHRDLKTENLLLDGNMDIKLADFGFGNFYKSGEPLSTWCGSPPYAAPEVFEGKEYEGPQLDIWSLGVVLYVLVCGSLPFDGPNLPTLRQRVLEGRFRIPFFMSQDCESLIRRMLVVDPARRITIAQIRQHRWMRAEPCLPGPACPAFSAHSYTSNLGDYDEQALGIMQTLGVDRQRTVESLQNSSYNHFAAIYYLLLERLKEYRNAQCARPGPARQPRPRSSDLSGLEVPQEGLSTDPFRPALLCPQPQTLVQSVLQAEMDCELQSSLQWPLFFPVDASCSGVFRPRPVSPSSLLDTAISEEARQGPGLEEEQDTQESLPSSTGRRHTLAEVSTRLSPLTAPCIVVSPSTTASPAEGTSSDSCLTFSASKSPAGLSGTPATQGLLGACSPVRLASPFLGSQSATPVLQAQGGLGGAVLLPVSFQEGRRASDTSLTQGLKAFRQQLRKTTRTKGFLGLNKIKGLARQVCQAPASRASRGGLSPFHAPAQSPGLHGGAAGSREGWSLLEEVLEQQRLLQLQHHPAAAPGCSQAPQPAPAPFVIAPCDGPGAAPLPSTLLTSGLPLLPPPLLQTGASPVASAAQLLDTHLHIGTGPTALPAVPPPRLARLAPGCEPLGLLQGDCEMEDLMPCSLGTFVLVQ

pIC50 (SIK1 [1])	pEC50 [2]	pIC50 (SIK2 [3])	pIC50 (SIK3 [4])	pIC50 (SIK3 [5])	pIC50 (SIK2 [6])	pIC50 (SIK1 [7])	SMILES
< 6.30	< 5.30	6.30 to 7.00	7.00 to 8.00				COc1cc(-c2cnc3cc(C4CCN(C(=O)OC(C)(C)C)CC4)ccn23)cc(OC)c1C(=O)NCC(F)(F)F [Cpd 16, tert-butyl 4-[3-[3,5-dimethoxy-4-(2,2,2-trifluoroethylcarbamoyl)phenyl]imidazo[1,2-a]pyridin-7-yl]piperidine-1-carboxylate]
< 6.30	6.00 to 7.00	< 6.30	7.00 to 8.00	7.00 to 8.00	< 6.30	< 6.30	COc1cc(-c2cnc3cc(C(C)(C)C#N)ccn23)cc(OC)c1C(=O)NCC(F)(F)F [Cpd 17, 4-[7-(1-cyano-1-methyl-ethyl)imidazo[1,2-a]pyridin-3-yl]-2,6-dimethoxy-N-(2,2,2-trifluoroethyl)benzamide]
< 6.30	5.30 to 6.00	< 6.30	7.00 to 8.00	7.00 to 8.00	< 6.30	< 6.30	COc1cc(-c2cnc3cc(C(C)(C)C#N)ccn23)cc2c1C(=O)NCC2 [Cpd 20, 2-[3-(8-methoxy-1-oxo-3,4-dihydro-2H-isoquinolin-6-yl)imidazo[1,2-a]pyridin-7-yl]-2-methyl-propanenitrile]
< 6.30	5.30 to 6.00	6.30 to 7.00	7.00 to 8.00	7.00 to 8.00	6.30 to 7.00	< 6.30	COc1cc(-c2cnc3cc(C4CCCN(C)C4)ccn23)cc(OC)c1C(=O)NCC(F)(F)F (stereo not shown) [Cpd 24, 2,6-dimethoxy-4-[7-(1-methyl-3-piperidyl)imidazo[1,2-a]pyridin-3-yl]-N-(2,2,2-trifluoroethyl)benzamide]
< 6.30	5.30 to 6.00	< 6.30	7.00 to 8.00	7.00 to 8.00	< 6.30	< 6.30	COc1cc(-c2cnc3cc(C(C)(C)C#N)ccn23)cc2c1C(=O)N(CC(F)(F)F)CC2 [Cpd 25, 2-[3-[8-methoxy-1-oxo-2-(2,2,2-trifluoroethyl)-3,4-dihydroisoquinolin-6-yl]imidazo[1,2-a]pyridin-7-yl]-2-methyl-propanenitrile]
< 6.30	6.00 to 7.00	6.30 to 7.00	7.00 to 8.00	8.00 to 11.00	6.30 to 7.00	< 6.30	COc1cc(-c2cnc3cc(C(C)C#N)ccn23)cc(OC(F)F)c1C(=O)NC1CC1 (stereo not shown) [Cpd 26, 4-[7-(1-cyanoethyl)imidazo[1,2-a]pyridin-3-yl]-N-cyclopropyl-2-(difluoromethoxy)-6-methoxy-benzamide]
< 6.30	6.00 to 7.00	< 6.30	7.00 to 8.00	8.00 to 11.00	6.30 to 7.00	< 6.30	COc1cc(-c2cnc3cc(C4(C#N)CCC4)ccn23)cc(OC(F)F)c1C(=O)NC1CC1 [Cpd 34, 4-[7-(1-cyanocyclobutyl)imidazo[1,2-a]pyridin-3-yl]-N-cyclopropyl-2-(difluoromethoxy)-6-methoxy-benzamide]
